The values below come from paper PMC10138723, “Cytotoxic Steroidal Saponins Containing a Rare Fructosyl from the Rhizomes of Paris polyphylla var. latifolia” (International Journal of Molecular Sciences, 2023).

Read-outs that look alike come from different tables or passages of the source. Some results are limits rather than exact numbers.

What all share (type): cell-based
Assay [1] has as its system U251 (human glioma cells). Put plainly: CCK-8 cytotoxic assay, U251. The note with it: read-out: IC50 ± SD, U251. The source says: (§1) U251 (human glioma cells), HeLa (human cervical cancer cells), and HepG2 (human hepatic cancer cells) were purchased from the Chinese Academy of Sciences (China), and Capan-2 (human pancreatic cancer cells) were obtained from Nanjing Cobioer Biosicences (Nanjing, China). American Type Culture Collection (ATCC) provided LN229 (human glioma cells). NHA (Gibco Human Astrocytes) and Gibco Astrocyte Medium (DMEM, N-2 Supplement, One Shot fetal bovine serum) were purchased from ThermoFisher Scientific (Waltham, MA, USA). The LN229, U251, HepG2 and HeLa cells were cultured in DMEM (Procell, Wuhan, China). The Capan-2 cells were cultured in RPMI-1640 (Procell, Wuhan, China) and NHA cells were cultured in Gibco Astrocyte Medium, supplemented with 10% FBS (Solarbio, Beijing, China) and 1% Penicillin–Streptomycin (Elabscience Biotechnology Co.,Ltd, Wuhan, China) at 37 °C with 5% CO2.
(§2) In the exponential phase of the growth, five tumor cell lines and one normal human astrocytes were plated onto 96-well plates at a concentration of 8000 cells/well for 24 h. Compounds 1–12 were prepared to various concentrations (64, 32, 16, 8, 4, 2, 1 and 0.5 µM in medium containing less than 0.1% DMSO) and incubated in 96-well plates (each concentration in four-fold wells) for 24 h. Cell viability was determined according to reported assay methods using the commercial CCK-8 kit (Elabscience Biotechnology Co., Ltd., Wuhan, China). The optical density (OD) of each well was measured with an AMR-100 microplate reader at 450 nm (Allsheng Corporation, Hangzhou, China). Cytotoxicity emerged as the value of the drug concentration at the inhibition of cell growth by 50% (IC50). The experiments were conducted for three independent replicates, and Doxorubicin was used as the positive control.

The subject of assay [2] is Capan-2 (human pancreatic cancer cells). Put plainly: CCK-8 cytotoxic assay, Capan-2. As to conditions: read-out: IC50 ± SD, Capan-2.
Source text: as §1, §2
(In general: Tetrazolium dyes change colour on reduction, which living cells bring about.)

The subject of assay [3] is HeLa (human cervical cancer cells). Put plainly: CCK-8 cytotoxic assay, HeLa. As to conditions: read-out: IC50 ± SD, HeLa.
Source text: as §1, §2

The subject of assay [4] is HepG2 (human hepatic cancer cells). As to the kind of experiment: CCK-8 cytotoxic assay, HepG2. The note with it: read-out: IC50 ± SD, HepG2.
Source text: as §1, §2

For assay [5], the system named is NHA (normal human astrocytes). Put plainly: CCK-8 cytotoxic assay, NHA normal astrocytes. As to conditions: Astrocyte, read-out: IC50 ± SD, NHA.
Source text: as §1, §2

Assay [6] deals with LN229 (human glioma cells). Put plainly: CCK-8 cytotoxic assay, LN229. As to conditions: read-out: IC50 ± SD, LN229.
Source text: as §1, §2

Assay [7] has as its system five cancer cell lines (LN229, U251, Capan-2, HeLa, HepG2). Put plainly: CCK-8 cytotoxic assay, summary over five cancer cell lines. As to conditions: Homo sapiens, range over compounds 1 and 2 and five cancer cell lines, read-out: IC50 values (range) against five cancer cell lines.
Source text: as §1
In the exponential phase of the growth, five tumor cell lines and one normal human astrocytes were plated onto 96-well plates at a concentration of 8000 cells/well for 24 h. […] Cell viability was determined according to reported assay methods using the commercial CCK-8 kit (Elabscience Biotechnology Co., Ltd., Wuhan, China). The optical density (OD) of each well was measured with an AMR-100 microplate reader at 450 nm (Allsheng Corporation, Hangzhou, China). […]

[8] abbreviates: NHA normal human astrocytes, CCK-8, 24 h.
Where [9] appears, read: LN-229, LN229 cells, CCK-8, 24 h.

As to `CC(=O)C1=CCC2C3CC=C4C[C@@H](O[C@@H]5O[C@H](CO)[C@@H](O)[C@H](O)[C@H]5O[C@@H]5O[C@@H](C)[C@H](O)[C@@H](O)[C@H]5O)CC[C@]4(C)C3CC[C@]12C` (stereo partly shown) [Compound 10, spongipregnolosides A], the IC50 in assay [1] (U-251, U251 cells, CCK-8, 24 h) is over 50 µM; in assay [2] (Capan-2 cells, CCK-8, 24 h), over 50 µM; in assay [3] (HeLa cells, CCK-8, 24 h), over 50 µM; in assay [4] (HepG2 cells, CCK-8, 24 h), over 50 µM; in assay [5] (setting [8]), over 50 µM; in assay [6] (setting [9]) it was over 50 µM.

As for `Cc1c(CCC(C)COC2OC(CO)C(O)C(O)C2O)ccc2c1C1(C)CCC3C(CC=C4CC(OC5OC(CO)C(OC6OC(C)C(OC7OC(C)C(O)C(O)C7O)C(O)C6O)C(O)C5OC5OC(C)C(O)C(O)C5O)CCC43C)C1C2` (stereo not shown) [Compound 7, parispseudoside A], the IC50 in assay [1] (U-251, U251 cells, CCK-8, 24 h) is over 50 µM; in assay [2] (Capan-2 cells, CCK-8, 24 h), over 50 µM; in assay [3] (HeLa cells, CCK-8, 24 h), over 50 µM; in assay [4] (HepG2 cells, CCK-8, 24 h), over 50 µM; in assay [5] (setting [8]) it was over 50 µM; in assay [6] (setting [9]) it was over 50 µM.

Regarding `COc1cccc2c1C(=O)c1c(O)c3c(c(O)c1C2=O)C[C@@](O)(C(=O)CO)C[C@@H]3O[C@H]1C[C@H](N)[C@H](O)[C@H](C)O1` [Doxorubicin, reference compound], the IC50 is 0.21 ± 0.04 µM in assay [1] (U-251, U251 cells, CCK-8, 24 h); 0.18 ± 0.02 µM in assay [2] (Capan-2 cells, CCK-8, 24 h); 0.18 ± 0.02 µM in assay [3] (HeLa cells, CCK-8, 24 h); 0.21 ± 0.02 µM in assay [4] (HepG2 cells, CCK-8, 24 h); over 50 µM in assay [5] (setting [8]); 0.35 ± 0.05 µM in assay [6] (setting [9]).

Consider `C=C1C(=O)OC2CC3C4CC=C5CC(OC6OC(CO)C(O)C(O)C6OC6OC(C)C(O)C(O)C6O)CCC5(C)C4CCC3(C)C12` (stereo not shown) [Compound 6, pallidifloside D], for which the IC50 in assay [1] (U-251, 24 h) is over 50 µM; in assay [2] (Capan-2, 24 h), over 50 µM; in assay [3] (HeLa, 24 h) it was over 50 µM; in assay [4] (HepG2, 24 h) it was over 50 µM; in assay [5] (Homo sapiens, 24 h) it was over 50 µM; in assay [6] (LN-229, 24 h) it was over 50 µM.

For the molecule `Cc1c(CCC(C)COC2OC(CO)C(O)C(O)C2O)ccc2c1C1(C)CCC3C(CC=C4CC(OC5OC(CO)C(OC6OC(CO)C(O)C6O)C(O)C5OC5OC(C)C(O)C(O)C5O)CCC43C)C1C2` [Compound 8, 3-O-α-L-arabinofuranosyl-(1 → 4)-[α-L-rhamnopyranosyl (1 → 2)]-β-D-glucopyranosyl-β-D-chacotriosyl-26-O-β-D-glucopyranoside], the IC50 in assay [1] (U-251, U251 cells, CCK-8, 24 h) was over 50 µM; in assay [2] (Capan-2 cells, CCK-8, 24 h) it was over 50 µM; in assay [3] (HeLa cells, CCK-8, 24 h) it was over 50 µM; in assay [4] (HepG2 cells, CCK-8, 24 h) it was over 50 µM; in assay [5] (setting [8]), over 50 µM; in assay [6] (setting [9]), over 50 µM.

In the case of `Cc1c(CCC(C)COC2OC(CO)C(O)C(O)C2O)ccc2c1C1(C)CCC3C(CC=C4CC(OC5OC(CO)C(O)C(O)C5OC5OC(C)C(O)C(O)C5O)CCC43C)C1C2` (stereo not shown) [Compound 12, parispseudoside B], the IC50 in assay [1] (U-251, U251 cells, CCK-8, 24 h) is over 50 µM; in assay [2] (Capan-2 cells, CCK-8, 24 h), over 50 µM; in assay [3] (HeLa cells, CCK-8, 24 h), over 50 µM; in assay [4] (HepG2 cells, CCK-8, 24 h), over 50 µM; in assay [5] (setting [8]) it was over 50 µM; in assay [6] (setting [9]), over 50 µM.

Consider `CC(=O)C1=CCC2C3CC=C4C[C@@H](O[C@@H]5O[C@H](CO)[C@@H](O[C@@H]6O[C@@H](CO)[C@H](O)[C@H]6O)[C@H](O)[C@H]5O[C@@H]5O[C@@H](C)[C@H](O)[C@@H](O)[C@H]5O)CC[C@]4(C)C3CC[C@]12C` (stereo partly drawn) [Compound 4, pregna-5,16-diene-3β-ol-20-one-3-O-α-L-arabinofuranosyl-(1 → 4)-[α-L-rhamnopyranosyl(1 → 2)]-β-D-glucopyranoside], for which the IC50 was over 50 µM in assay [1] (U-251, U251 cells, CCK-8, 24 h); over 50 µM in assay [2] (Capan-2 cells, CCK-8, 24 h); over 50 µM in assay [3] (HeLa cells, CCK-8, 24 h); over 50 µM in assay [4] (HepG2 cells, CCK-8, 24 h); over 50 µM in assay [5] (setting [8]); over 50 µM in assay [6] (setting [9]).

`Cc1c(CCC(C)COC2OC(CO)C(O)C(O)C2O)ccc2c1C1(C)CCC3C(CC=C4CC(OC5OC(CO)C(OC6OC(C)C(O)C(O)C6O)C(O)C5OC5OC(C)C(O)C(O)C5O)CCC43C)C1C2` (stereo not shown) [Compound 9, aethioside A]: the IC50 was over 50 µM in assay [1] (U-251, U251 cells, CCK-8, 24 h); over 50 µM in assay [2] (Capan-2 cells, CCK-8, 24 h); over 50 µM in assay [3] (HeLa cells, CCK-8, 24 h); over 50 µM in assay [4] (HepG2 cells, CCK-8, 24 h); over 50 µM in assay [5] (setting [8]); over 50 µM in assay [6] (setting [9]).

For the molecule `C=C1C(=O)OC2CC3C4CC=C5CC(OC6OC(CO)C(OC7OC(CO)C(O)C7O)C(O)C6OC6OC(C)C(O)C(O)C6O)CCC5(C)C4CCC3(C)C12` (stereo not shown) [Compound 3], the half-inhibitory concentration (IC50) in assay [1] (U-251, U251 cells, CCK-8, 24 h) is over 50 µM; in assay [2] (Capan-2 cells, CCK-8, 24 h) it was over 50 µM; in assay [3] (HeLa cells, CCK-8, 24 h), over 50 µM; in assay [4] (HepG2 cells, CCK-8, 24 h) it was over 50 µM; in assay [5] (setting [8]), over 50 µM; in assay [6] (setting [9]) it was over 50 µM.

With `CC(=O)C1=CC[C@H]2[C@@H]3CC=C4C[C@@H](O[C@@H]5O[C@H](CO)[C@@H](O[C@@H]6O[C@@H](C)[C@H](O)[C@@H](O)[C@H]6O)[C@H](O)[C@H]5O[C@@H]5O[C@@H](C)[C@H](O)[C@@H](O)[C@H]5O)CC[C@]4(C)[C@H]3CC[C@]12C` [Compound 11, hypoglaucin H], the half-maximal inhibitory concentration (IC50) was over 50 µM in assay [1] (U-251, U251 cells, CCK-8, 24 h); over 50 µM in assay [2] (Capan-2 cells, CCK-8, 24 h); over 50 µM in assay [3] (HeLa cells, CCK-8, 24 h); over 50 µM in assay [4] (HepG2 cells, CCK-8, 24 h); over 50 µM in assay [5] (setting [8]); over 50 µM in assay [6] (setting [9]).

On to `C=C1C(=O)OC2CC3C4CC=C5CC(OC6OC(CO)C(OC7OC(C)C(O)C(O)C7O)C(O)C6OC6OC(C)C(O)C(O)C6O)CCC5(C)C4CCC3(C)C12` (stereo not shown) [Compound 5, chonglouoside SL-8], for which the IC50 was over 50 µM in assay [1] (U-251, U251 cells, CCK-8, 24 h); over 50 µM in assay [2] (Capan-2 cells, CCK-8, 24 h); over 50 µM in assay [3] (HeLa cells, CCK-8, 24 h); over 50 µM in assay [4] (HepG2 cells, CCK-8, 24 h); over 50 µM in assay [5] (setting [8]); over 50 µM in assay [6] (setting [9]).

Take `CC1CCC2(OC1)OC1CC3C4CC=C5CC(OC6OC(COC7(CO)OC(CO)C(O)C7O)C(OC7OC(CO)C(O)C7O)C(O)C6OC6OC(C)C(O)C(O)C6O)CCC5(C)C4CCC3(C)C1C2C` [Compound 2, diosgenin-3-O-β-D-fructofuranosyl-(1 → 6)-[α-L-arabinofuranosyl-(1→4)]-[α-L-rhamnopyranosyl-(1→2)]-β-D-glucopyranoside]: the IC50 in assay [1] (U-251, U251 cells, CCK-8, 24 h) was 15.8 ± 0.65 µM; in assay [2] (Capan-2 cells, CCK-8, 24 h), 20.4 ± 1.05 µM; in assay [3] (HeLa cells, CCK-8, 24 h), 22.3 ± 1.33 µM; in assay [4] (HepG2 cells, CCK-8, 24 h), 18.8 ± 1.25 µM; in assay [7] it was 3.26 to 22.3 µM; in assay [5] (setting [8]) it was over 50 µM. In assay [6] (setting [9]), the IC50 came out at 15.4 ± 0.47 µM.

The term IC50 denotes the concentration that inhibits the measured activity by half.
